Experimental findings from patent publication US20090226500A1, “SUTURES AND ANTI-SCARRING AGENTS” (Angiotech Pharmaceuticals, Inc, priority 2006, published 2009) are described below.

The subject of experiment [1] is nitric oxide production by macrophages (murine macrophage cell line RAW 264.7). Kind of experiment: Nitric oxide production by macrophages. The format is cell-based.
Experiment [2] relates to MCP-1 production by THP-1 cells. Kind of experiment: MCP-1 production by macrophages. The format is cell-based, human. The note with it: THP-1 cells stimulated with opsonized zymosan, 24 hours; read-out: IC50 MCP-1 production. The method, boiled down: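 THP-1 cells (1×10^6/well, 10% FCS) stimulated with 1 mg/ml serum-opsonized zymosan plus compound added from DMSO stocks at 1/1000, 24 h at 37° C. MCP-1 in supernatants quantified by sandwich ELISA (TMB read-out) against a recombinant human MCP-1 standard curve, triplicates, background-subtracted.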

The test system of experiment [3] is TNFα production by THP-1 cells. Kind of experiment: TNF-alpha production by macrophages. The note with it: THP-1 cells stimulated with opsonized zymosan, 24 hours; read-out: IC50 TNFα production. It is filed as cell-based, human. The method, boiled down: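 THP-1 cells (1×10^6 per well, 10% FCS) were stimulated with 1 mg/ml serum-opsonized zymosan and incubated with drug in triplicate for 24 h at 37 °C. TNFα in the supernatants was quantified by sandwich ELISA (HRP/TMB read-out) against a recombinant human TNFα standard curve.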

Experiment [4] concerns E. coli UB1005 C498. Description: MIC microtitre broth dilution, E. coli. It is filed as cell-based. To be noted: E. coli UB1005 C498 wt Gram−, 24 h. How it is done: (§1) MIC assays were conducted essentially as described by Amsterdam, D 1996, “Susceptibility testing of antimicrobials in liquid media”, p. 52-111, in Loman, V, ed. Antibiotics in laboratory medicine, 4th ed Williams and Wilkins, Baltimore, Md.

Experiment [5] has as its system S. aureus ATCC25923 C622. Description: MIC microtitre broth dilution, S. aureus. It is filed as cell-based. The note with it: S. aureus ATCC25923 C622 wt Gram+, 24 h. The method, then: as §1
For experiment [6], the system named is S. epidermidis C621. Kind of experiment: MIC microtitre broth dilution, S. epidermidis. It is filed as cell-based. The note with it: S. epidermidis C621 wt Gram+, 24 h. How it is done: as §1
For experiment [7], the system named is Smooth muscle cells. Kind of experiment: Proliferation of smooth muscle cells. It is filed as cell-based. To be noted: 72 hours, CYQUANT; read-out: IC50 proliferation of smooth muscle cells. The method, boiled down:
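Smooth muscle cells at 600 cells/well, exposed to paclitaxel (DMSO stocks 10^−8 to 10^−2 M) in triplicate for 72 h at 37 °C. Proliferation read with CyQUANT GR dye in lysis buffer.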

In experiment [8] the test system is S. pyogenes C721. Description: MIC microtitre broth dilution, S. pyogenes. To be noted: S. pyogenes C721 wt Gram+, Todd Hewitt broth. It is filed as cell-based. How it is done: as §1
Experiment [9] relates to P. aeruginosa PAE/K799 H187. Kind of experiment: MIC microtitre broth dilution, P. aeruginosa. The note with it: P. aeruginosa PAE/K799 H187 wt Gram−, 24 h. The format is cell-based. How it is done:
as §1

The test system of experiment [10] is K. pneumoniae ATCC13883 C238. Description: MIC microtitre broth dilution, K. pneumoniae. The format is cell-based. To be noted: K. pneumoniae ATCC13883 C238 wt Gram−, 24 h. The method, then:
as §1

Experiment [11] relates to AP-1. Kind of experiment: IL-1 induced AP-1 DNA binding activity (gel mobility shift). It is filed as cell-based. The note with it: chondrocyte lysates, pretreated 10^−7 to 10^−5 M for 24 hours. How it is done: Binding activity was assayed with a radiolabeled human AP-1 sequence probe and gel mobility shift assay. Extracts from chondrocytes untreated or treated with various amounts of paclitaxet (10^−7 to 10^−5 M) followed by IL-1β (20 ng/ml) were incubated with excess probe on ice for 30 minutes, followed by non-denaturing gel electrophoresis (FIG. 10B). The “com” lane contains excess unlabeled AP-1 oligonucleotide. The results shown are representative of three independent experiments.

Experiment [12] deals with CAM vasculature (angiogenesis). Description: Chick chorioallantoic membrane (CAM) assay. To be noted: for Inhibition/n: 48 hours.
Experiment [13] relates to Primary human smooth muscle cells. Description: Smooth muscle cell migration. To be noted: chemotaxis to rhPDGF-BB 10 ng/ml, 4 hours. The format is cell-based. How it is done: Primary human smooth muscle cells were starved of serum in smooth muscle cell basal media containing insulin and human basic fibroblast growth factor (bFGF) for 16 hours prior to the assay. For the migration assay, cells were trypsinized to remove cells from flasks, washed with migration media and diluted to a concentration of 2-2.5×10^5 cells/ml in migration media. Migration media consists of phenol red free Dulbecco's Modified Eagle Medium (DMEM) containing 0.35% human serum albumin. A 100 μL volume of smooth muscle cells (approximately 20,000-25,000 cells) was added to the top of a Boyden chamber assembly (Chemicon QCM CHEMOTAXIS 96-well migration plate). To the bottom wells, the chemotactic agent, recombinant human platelet derived growth factor (rhPDGF-BB) was added at a concentration of 10 ng/ml in a total volume of 150 μL. Paclitaxel was prepared in DMSO at a concentration of 10^−2 M and serially diluted 10-fold to give a range of stock concentrations (10^−8 M to 10^−2 M). […]
At the end of the 4-hour period, cells in the top chamber were discarded and the smooth muscle cells attached to the underside of the filter were detached for 30 minutes at 37° C. in Cell Detachment Solution (Chemicon). […] Fluorescence was read in a fluorescence microplate reader at ˜480 nm excitation wavelength and ˜520 nm emission maxima. […]

Experiment [14] relates to human fibroblasts. Kind of experiment: Cell proliferation of fibroblasts. The format is cell-based. The note with it: Fibroblast, 72 hours, CYQUANT, read-out: IC50 cell proliferation of fibroblasts. The method, boiled down: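 Human fibroblasts plated at 600 cells/well, attached overnight, then exposed to drug in triplicate for 72 h at 37°C. Cell content read with CYQUANT GR dye in lysis buffer after 3-5 min at room temperature.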

In experiment [15] the test system is stromelysin (MMP-3). Description: IL-1 induced stromelysin (MMP-3) mRNA expression in chondrocytes. It is filed as cell-based. The method, then: (§2) Cells were treated with paclitaxel at various concentrations (10^−7 to 10^−5 M) for 24 hours, then treated with IL-1β (20 ng/ml) for additional 18 hours in the presence of paclitaxel. Total RNA was isolated, and the MMP-1 mRNA levels were determined by Northern blot analysis. The blots were subsequently stripped and re-probed with ^32P-radiolabeled rat GAPDH cDNA, which was used as a housekeeping gene. The results shown are representative of four independent experiments (FIG. 10D). Quantitation of collagenase-1 and stromelysin-expression mRNA levels were conducted. The MMP-1 and MMP-3 expression levels were normalized with GAPDH.

Experiment [16] relates to AP-1. Description: IL-1 stimulated AP-1 transcriptional activity (CAT reporter) in chondrocytes. It is filed as cell-based. To be noted: 10^−7 to 10^−5 M.
The subject of experiment [17] is collagenase (MMP-1). Description: IL-1 induced collagenase (MMP-1) mRNA expression in chondrocytes. The format is cell-based, calf. How it is done: as §2
Primary chondrocyte cultures were freshly isolated from calf cartilage. The cells were plated at 2.5×10^6 per ml in 100×20 mm culture dishes and incubated in Ham's F12 medium containing 5% FBS overnight at 37° C. The cells were starved in serum-free medium overnight and then treated with anti-microtubule agents at various concentrations for 6 hours. IL-1 (20 ng/ml) was then added to each plate and the plates incubated for an additional 18 hours. Total RNA was isolated by the acidified guanidine isothiocyanate method and subjected to electrophoresis on a denatured gel Denatured RNA samples (15 μg) were analyzed by gel electrophoresis in a 1% denatured gel, transferred to a nylon membrane and hydridized with the ^32P-labeled collagenase cDNA probe. ^32P-labeled glyceraldehyde phosphate […] (GAPDH) cDNA was used as an internal standard to ensure roughly equal loading. The exposed films were scanned and quantitatively analyzed with IMAGEQUANT.

In experiment [18] the test system is murine RAW 264.7 macrophage cell line. Description: Proliferation of murine RAW 264.7 macrophage cell line. It is filed as cell-based. The note with it: Mus musculus, RAW264.7.

The structures appear in SMILES notation. Entries after “also recorded” stand apart in the source; their conditions may differ.

On to `C/C(=N\N=C(N)N)c1cc(NC(=O)CCCCCCCCC(=O)Nc2cc(/C(C)=N/N=C(N)N)cc(/C(C)=N/N=C(N)N)c2)cc(/C(C)=N/N=C(N)N)c1` [CNI-1493], for which the IC50 in experiment [1] came out at 249 nM; in [2] it was 0.02 nM; in experiment [3], 0.15 nM.

With `COc1cccc2c1C(=O)c1c(O)c3c(c(O)c1C2=O)C[C@@](O)(C(=O)CO)C[C@@H]3O[C@H]1C[C@H](N)[C@H](O)[C@H](C)O1` [doxorubicin], the Minimum inhibitory concentration is 10^−4 Molar in [4]; 10^−5 Molar in [5]; 10^−6 Molar in [6]; 10^−7 Molar in experiment [8]; 10^−5 Molar in experiment [9]; 10^−6 Molar in experiment [10]. Further, in experiment [7], the IC50 is 64 nM.

Take `COc1cc([C@@H]2c3cc4c(cc3[C@@H](O[C@@H]3O[C@@H]5CO[C@@H](C)O[C@H]5[C@H](O)[C@H]3O)[C@H]3COC(=O)[C@H]23)OCO4)cc(OC)c1O` [etoposide]: the Minimum inhibitory concentration entry is on record as “N” in [4]; 10^−5 Molar in experiment [5]; 10^−6 Molar in experiment [6]; 10^−5 Molar in [8]; “N” in experiment [9]; 10^−5 Molar in [10]. For the same compound, the IC50 in [7] came out at 320 nM.

For `CC(=O)O[C@H]1C(=O)[C@@]2(C)[C@H]([C@H](OC(=O)c3ccccc3)[C@]3(O)C[C@H](OC(=O)[C@H](O)[C@@H](NC(=O)c4ccccc4)c4ccccc4)C(C)=C1C3(C)C)[C@]1(OC(C)=O)CO[C@@H]1C[C@@H]2O` [paclitaxel, 5β,20-epoxy-1,2 alpha,4,7β,10β,13 alpha-hexahydroxytax-11-en-9-one-4,10-diacetate-2-benzoate-13-(alpha-phenylhippurate)], in [11], the “IL-1 induced AP-1 binding activity” value is “decreased”. Besides, the Inhibition/n in experiment [12] (0.25 μg in methylcellulose (10 μl)) was 2/11; in experiment [12] (0.5 μg in methylcellulose (10 μl)), 6/11; in experiment [12] (1 μg in methylcellulose (10 μl)), 6/15; in experiment [12] (5 μg in methylcellulose (10 μl)) it was 20/27; in experiment [12] (10 μg in methylcellulose (10 μl)) it was 16/21; in experiment [12] (30 μg in methylcellulose (10 μl)), 31/31. Moreover, the angiogenesis result in experiment [12] (48 hours after application to the CAM) was “inhibited”. In [12] (maximal avascular zone within 48 hours, depending on concentration), this compound registered an avascular gradient scale of 3. Further, the IC50 in experiment [13] was 0.76 nM; in experiment [14], 10 to 100 nM; in [7], 7 nM; in experiment [18], 134 nM. The “IL-1 induced stromelysin mRNA levels” value is listed as “complete inhibition” in [15] (at 10^−5 M) and “significantly reduced; also recorded: inhibited” in experiment [15] (chondrocytes, pretreatment for 24 hours). Besides, in experiment [15] (chondrocytes in vitro), the “concentration that inhibits stromelysin expression” value is reported as 10^−6 M. Also, in experiment [16], the “IL-1 induced AP-1 reporter gene CAT activity” value was “decreased CAT activity in a concentration dependent manner; also recorded: reduced”. Besides, the “IL-1 induced collagenase mRNA levels” value was “complete inhibition” in [17] (at 10^−5 M) and “significantly reduced; also recorded: inhibited” in experiment [17] (chondrocytes, pretreatment before IL-1). The “concentration that inhibits IL-1-induced collagenase expression” value in experiment [17] (chondrocytes in vitro) is on record as 10^−6 M.

As to `Nc1ncnc2c1ccn2[C@@H]1O[C@H](CO)[C@@H](O)[C@H]1O` [tubercidin], the values for the IC50 in [2] and in [7] were 56 nM and 30 nM, respectively. In addition, the Minimum inhibitory concentration result in [4], in [5], in experiment [6], in [8], in [9] and in [10] was “N” in each case.
